Experimental data as given in patent publication US20250263408A1 (Uniquest Pty Ltd, priority 2022, published 2025).

Tests used:
Ba/F3-Syk cells = molecular target: T1, Ba/F3-Syk cells (Homo sapiens, UniProt P43405); assay: Ba/F3 Proliferation Assay, Ba/F3-Syk cells (Resazurin); format: cell-based; conditions: 48-hour incubation
T1 construct: fused on or other part: Possible but unprinted fusion partner: TEL (ETV6), the usual partner for Ba/F3 lines transformed by Syk; Nothing on a partner is printed

Syk = molecular target: T2, Syk (Homo sapiens, UniProt P43405); assay: Syk Biochemical Assay (ADP-Glo luminescence); conditions: ATP 40 μM final, 60 minutes, read-out: SYK Biochem IC50
T2 construct: purchased Promega

[1] = Brain Penetration Assays: Mouse Pharmacokinetics (plasma and brain levels after oral dose); format: in vivo; conditions: male, CD-1, mouse, mice, 1 hour post oral dose of 10 mg/kg; for concentration at 1 h: brain (free, unbound); for Kp at 1 h: brain / plasma (unbound), read-out: Kpu,u (ratio of unbound brain levels to unbound plasma levels)
Protocol: Male CD-1 mice (6-8 weeks of age, 3 animals per timepoint) were dosed via oral gavage (10 mL/kg) with compound (10 mg/kg, 0.5% methylcellulose in water). Blood samples were taken either non-terminal via saphenous vein or terminal via cardiac puncture and stored in 1.5 mL Eppendorf tubes containing 0.010 mL of 10% K2EDTA, mixed gently and placed in ice before centrifugation. Blood was centrifuged at 10,000 r.p.m. for 2 minutes, plasma harvested and stored at −80° C. Following blood collection at the terminal time points, animals were sacrificed with C02 and brains quickly removed, rinsed with cold saline (0.9% NaCl), surface vasculature ruptured, blotted with dry gauze or tissue and weighed. The whole brain was homogenized in 1.0 mL ice cold phosphate-buffered saline, pH 7.4 and the homogenates stored at −80° C. Compound concentrations were quantified in plasma and brain tissue by LC-MS/MS using a partially validated bioanalytical method.
(§1) The Rapid Equilibrium Dialysis (RED) method was employed with plasma (200 μL, BioIVT, USA) in phosphate buffered saline (PBS, 350 μL) incubated with compound (1 μM) at 37° C. for 5 hours shaking at 450 r.p.m. Acetonitrile (3 volumes) was added and the sample centrifuged for 5 minutes and 1050 r.p.m. then for 15 minutes at 4000 r.p.m. Compound concentrations were quantified via LC-MS/MS from supernatant and free drug was calculated.
as §1, with “RED” for “Rapid Equilibrium Dialysis (RED)”, “mouse brain homogenate (10% w/v prepared in-house))” for “plasma (200 μL, BioIVT, USA) in phosphate buffered saline (PBS, 350 μL)”, “14” for “15”

MDR1 (Pgp) = assay: Permeability Assay, bi-directional flux in MDCKII-MDR1 cells; format: in vitro ADME, canine; conditions: dog; for Papp at 2 h, 10 PM: MDCK-MDR1, 2 hours at 37° C., concentration printed as 10 PM; for efflux ratio at 2 h, 10 PM: MDCK-MDR1, ratio >2 indicates the compound is effluxed, read-out: efflux ratio (PappB-A/PappA-B)
Protocol: The assay was performed using Charles River/Agilux default assay conditions and default acetonitrile extraction and bioanalytical conditions. The assay was performed using MDCKII-MDR1 (Pgp) cells (canine MDCK stably transfected with MDR1). Bi-directional (A-B and B-A) flux measurements were carried out in triplicate aliquots from duplicate wells. The compounds were incubated for 2 hours at 37° C. at a concentration of 10 PM. The efflux ratio is the ratio of PappB-A/PappA-B, and a ratio >2 indicates the compound is effluxed.

[2] = test system: Ba/F3-WT (wild type) cells; assay: Ba/F3 Proliferation Assay, Ba/F3-WT (wild type) cells with mIL-3 (Resazurin); format: cell-based; conditions: Mus musculus, BaF3, 48 h, Ba/F3-WT cells +mIL-3, 48-hour incubation

Row | SMILES | EC50 (Ba/F3-Syk cells) | IC50 (Syk) | concentration at 1 h [1] | Kp at 1 h [1] | Papp at 2 h, 10 PM (MDR1 (Pgp)) | efflux ratio at 2 h, 10 PM (MDR1 (Pgp)) | EC50 [2]
1 | Cn1ccc(-c2cc3ncccc3c(OC[C@@H]3CNCCO3)n2)c1 [Compound 2.20, 7-(1-methyl-1H-pyrrol-3-yl)-5-{[(2S)-morpholin-2-yl]methoxy}-1,6-naphthyridine] | 87.5 nM | 37.8 nM | > 25 nM | 0.2 to 0.3 | > 20 ×10⁻⁶ cm/s | ≤ 1 | 4170 nM
2 | CC1(C)CNC[C@@H](COc2nc(-c3cnn(C(C)(C)C)c3)cc3ncccc23)O1 [Compound 2.42, 7-(1-tert-butyl-1-pyrazol-4-yl)-5-{[(2S)-6,6-dimethylmorpholin-2-yl]methoxy}-1,6-naphthyridine] | 12.5 nM | 12.2 nM | > 25 nM | 0.1 to 0.2 | > 20 ×10⁻⁶ cm/s | ≤ 1 | 2340 nM
3 | C[C@@H](Oc1nc(-c2ccn(C)c2)cc2ncccc12)[C@@H]1CNCCO1 [Compound 2.44, 7-(1-methyl-1H-pyrrol-3-yl)-5-[(1R)-1-[(2S)-morpholin-2-yl]ethoxy]-1,6-naphthyridine] | 53.1 nM | 31 nM | ≤ 10 nM | > 0.3 |  |  | 2110 nM
4 | Cn1ccc(-c2cc3ncccc3c(OC[C@@H]3CNCC(C)(C)O3)n2)c1 [Compound 2.51, 5-{[(2S)-6,6-dimethylmorpholin-2-yl]methoxy}-7-(1-methyl-1H-pyrrol-3-yl)-1,6-naphthyridine] | 45.5 nM | 8.1 nM | ≤ 25 nM | > 0.3 |  |  | 6070 nM
5 | Cn1cc(-c2cc3ncccc3c(OC[C@@H]3CNCC4(CCC4)O3)n2)cn1 [Compound 2.55, 7-(1-methyl-1H-pyrazol-4-yl)-5-{[(6S)-5-oxa-8-azaspiro[3.5]nonan-6-yl]methoxy}-1,6-naphthyridine] | 43.8 nM | 29.7 nM | > 25 nM | 0.05 to 0.1 |  |  | 3270 nM
6 | CC(C)n1cc(-c2cc3ncccc3c(O[C@H](C)[C@@H]3CNCCO3)n2)cn1 [Compound 2.66, 5-[(1R)-1-[(2S)-morpholin-2-yl]ethoxy]-7-[1-(propan-2-yl)-1H-pyrazol-4-yl]-1,6-naphthyridine] | 14.5 nM |  | ≤ 25 nM | 0.05 to 0.1 |  |  | 1020 nM
7 | C[C@@H](Oc1nc(-c2cnn(C(C)(C)C)c2)cc2ncccc12)[C@@H]1CNCCO1 [Compound 2.67, 7-(1-tert-butyl-1H-pyrazol-4-yl)-5-[(1R)-1-[(2S)-morpholin-2-yl]ethoxy]-1,6-naphthyridine] | 18.6 nM | 29.5 nM | ≤ 25 nM | 0.1 to 0.2 |  |  | 1860 nM
8 | Cn1ccc(-c2cc(OC[C@@H]3CNCCO3)c3cccnc3c2)c1 [Compound 3.1, 7-(1-methyl-1H-pyrrol-3-yl)-5{-[(2S)-morpholin-2-yl]methoxy}quinoline] | 78.2 nM | 48.1 nM |  | 0.1 to 0.2 | 15 to 20 ×10⁻⁶ cm/s | ≤ 1 | 2660 nM
9 | CC(C)n1cc(-c2cc(OC[C@@H]3CNCC(C)(C)O3)c3cccnc3c2)cn1 [Compound 3.6, 5-{[(2S)-6,6-dimethylmorpholin-2-yl]methoxy}-7-[1-(propan-2-yl)-1H-pyrazol-4-yl]quinoline] | 23.3 nM | 10.6 nM | ≤ 25 nM | 0.05 to 0.1 | 15 to 20 ×10⁻⁶ cm/s | 1 to 2 | 2120 nM
10 | Cn1ccc(-c2cc(OC[C@@H]3CNCC(C)(C)O3)c3cccnc3c2)c1 [Compound 3.10, 5-{[(2S)-6,6-dimethylmorpholin-2-yl]methoxy}-7-(1-methyl-1H-pyrrol-3-yl)quinoline] | 53.2 nM | 35 nM | > 25 nM | 0.2 to 0.3 |  |  | 4610 nM
11 | CC(C)n1ccc(-c2cc3ncccc3c(OC[C@@H]3CNCCO3)n2)c1 [Compound 6.2, 5-{[(2S)-morpholin-2-yl]methoxy}-7-[1-(propan-2-yl)-1H-pyrrol-3-yl]-1,6-naphthyridine] | 35.6 nM | 16 nM |  | 0.1 to 0.2 | > 20 ×10⁻⁶ cm/s | 1 to 2 | 2550 nM
12 | CC(C)n1ccc(-c2cc3ncccc3c(OC[C@@H]3CNCC(C)(C)O3)n2)c1 [Compound 6.9, 5-{[(2S)-6,6-dimethylmorpholin-2-yl]methoxy}-7-[1-(propan-2-yl)-1H-pyrrol-3-yl]-1,6-naphthyridine] | 11.4 nM | 14.1 nM |  | 0.1 to 0.2 | 15 to 20 ×10⁻⁶ cm/s | ≤ 1 | 3300 nM
13 | CCn1ccc(-c2cc3ncccc3c(OC[C@@H]3CNCC(C)(C)O3)n2)c1 [Compound 6.19, 5-{[(2S)-6,6-dimethylmorpholin-2-yl]methoxy}-7-(1-ethyl-1H-pyrrol-3-yl)-1,6-naphthyridine] | 21.4 nM | 11.9 nM | > 25 nM | 0.1 to 0.2 |  |  | 5020 nM
14 | CCn1ccc(-c2cc3ncccc3c(OC[C@@H]3CNCCCO3)n2)c1 [Compound 6.26, 7-(1-ethyl-1H-pyrrol-3-yl)-5-{[(2S)-1,4-oxazepan-2-yl]methoxy}-1,6-naphthyridine] | 21.4 nM | 32.1 nM | ≤ 10 nM | 0.1 to 0.2 |  |  | > 10000 nM
15 | CC(C)n1ccc(-c2cc3ncccc3c(O[C@H](C)[C@@H]3CNCCO3)n2)c1 [Compound 6.28, 5-[(1R)-1-[(2S)-morpholin-2-yl]ethoxy]-7-[1-(propan-2-yl)-1H-pyrrol-3-yl]-1,6-naphthyridine] | 15 nM | 41.8 nM | ≤ 10 nM | 0.2 to 0.3 |  |  | 2680 nM
16 | CC1(C)CNC[C@@H](COc2cc(-c3ccn(C4COC4)c3)cc3ncccc23)O1 [Compound 7.11, 5-{[(2S)-6,6-dimethylmorpholin-2-yl]methoxy}-7-[1-(oxetan-3-yl)-1H-pyrrol-3-yl]quinoline] | 14.4 nM | 9.7 nM | ≤ 10 nM | 0.2 to 0.3 |  |  | 1700 nM
